Data set [1] concerns MG63.3 OS cell line. The experiment in a line: in vitro 3D BME assay with MG63.3 OS cell line. It is filed as cell-based, human. The conditions noted are these: for effect on metastatic phenotype / 3D growth in 3D BME (words): MG63.3, Day 6 MTS, at or below 1 μM; for minimal effective concentration: Homo sapiens, MG-63.3, MG63.3 on 3D BME, vs vehicle control, replicates=4, read-out: lowest dose leading to appreciable inhibition of 3D growth; for activity on 3D BME compared with 2D: MG63.3, 3D BME vs 2D MTT 72 h. An excerpt:
(§1) 3D basement membrane extract (BME) assay was developed at the NCI Barkan (D. Barkan et al. 2008; Dalit Barkan and Green 2011; Hen and Barkan 2020). BME is purified from Engelbreth-Holm-Swarm (EHS) tumor, primarily made up of laminin, collagen IV, entactin, and heparin sulfate proteoglycans (Cultrex Reduced Growth Factor Basement Membrane Extract, PathClear n.d.), which allows it to more accurately reflect the 3D extracellular environment in the body.
(§2) Initially >150 selected therapeutic agents were tested on BME based on the likelihood for either a positive effect or a […] negative effect (as negative controls). […] These therapeutic agents were also tested in dose response (as broad as 1 pM-100 μM) for 2D cytotoxicity (MTT) and the IC50 was calculated. Where required, the hits from the initial screen were also further characterized at additional doses <100 nM in order to further determine the relative selectivity compared to the 2D IC50.
(§3) The influence of drug exposure on the metastatic phenotype was assessed in an in vitro assay of ME and escape from dormancy using a 3D BME assay as previously reported, which was adapted for use with OS cells.
(§4) Cultrex® PathClear, Reduced Growth Factor Basement Membrane Extract (BME—Bio-Techne, Minneapolis, MN) was added ([…]) to a 96-well plate and allowed to gel by incubating at 37° C. for ≥30 min. Cells were harvested, washed with DMEM (no glucose, no FBS, Gibco, Grand Island, NY) and centrifuged at 1500 g×5 mins. The media was aspirated and the remaining cell pellet flicked for about 10 s to ensure disaggregation.
(§5) Cells were diluted in assay media containing 2% BME, resuspended vigorously and 150 μL of the cell suspension was added on top of the gelled 3D BME layer. […] Cell numbers were determined in control vehicle (cells in media+0.1% DMSO), or treated wells and were measured on the indicated days by addition of 20 μL/well of MTS reagent (Cell Titer 96 Aqueous One, Promega, Madison, WI), followed by incubation at 37° C. for 2 h and absorbance measurements at 490 nm via plate reader (Molecular Devices, San Jose CA).
(§6) All conditions were conducted in quadruplicate and each experiment was carried out at least 3 separate times. All comparisons were made between treatment and vehicle control at concordant time points. Statistical analyses and non-linear regressions were derived using GraphPad Prism statistical software.

The subject of data set [2] is MG63.3 OS cell line. Briefly: 2D growth / cytotoxicity by MTT, MG63.3. How it is done: The number of viable cells present in 2D culture was determined by MTT as previously reported. Briefly, cells were plated in 96-well plates at 2,000 cells/well and incubated at 37° C. for 24 h. After 24 h, the media was replaced with fresh media containing drugs at the desired concentrations (10 pM-10 μM) and incubated at 37° C. for 72 h. After 72 h, MTT reagent (20 L/well of a 5 mg/mL stock solution in sterile water; Sigma, St. Louis, MO) was added to each well and the plate was incubated at 37° C. for 2 h. DMSO ([…]) was then added to each well to solubilize the formazan crystals.
(§7) The resulting absorbance was measured at 490 nm via plate reader (Molecular Devices, San Jose, CA). DMSO (0.1%) was used as vehicle control, while 20 μM rapamycin was used as a positive cell-kill control. The experimental conditions were conducted in triplicate and each experiment was repeated three times. Regression lines and IC50's were calculated using a four-parameter variable slope nonlinear fit in GraphPad Prism.

For data set [3], the system named is K7M2 OS cell line. Briefly: in vitro 3D BME assay with K7M2 OS cell line. It is filed as cell-based, mouse. The conditions noted are these: K7M2, Day 6 MTS, at or below 1 μM.
From the text: as §1, §2, §3, §4, §5, §6

The subject of data set [4] is K7M2 OS cell line. Briefly: 2D growth / cytotoxicity by MTT, K7M2. It is filed as cell-based, mouse. The protocol:
The number of viable cells present in 2D culture was determined by MTT as previously reported. Briefly, cells were plated in 96-well plates at 2,000 cells/well and incubated at 37° C. for 24 h. […] After 72 h, MTT reagent (20 L/well of a 5 mg/mL stock solution in sterile water; Sigma, St. Louis, MO) was added to each well and the plate was incubated at 37° C. for 2 h. DMSO ([…]) was then added to each well to solubilize the formazan crystals.
as §7

Data set [5] deals with JAK1 (Homo sapiens, UniProt P23458). The conditions noted are these: cited from earlier work.
Sequence of JAK1 (P23458 whole entry, species assumed): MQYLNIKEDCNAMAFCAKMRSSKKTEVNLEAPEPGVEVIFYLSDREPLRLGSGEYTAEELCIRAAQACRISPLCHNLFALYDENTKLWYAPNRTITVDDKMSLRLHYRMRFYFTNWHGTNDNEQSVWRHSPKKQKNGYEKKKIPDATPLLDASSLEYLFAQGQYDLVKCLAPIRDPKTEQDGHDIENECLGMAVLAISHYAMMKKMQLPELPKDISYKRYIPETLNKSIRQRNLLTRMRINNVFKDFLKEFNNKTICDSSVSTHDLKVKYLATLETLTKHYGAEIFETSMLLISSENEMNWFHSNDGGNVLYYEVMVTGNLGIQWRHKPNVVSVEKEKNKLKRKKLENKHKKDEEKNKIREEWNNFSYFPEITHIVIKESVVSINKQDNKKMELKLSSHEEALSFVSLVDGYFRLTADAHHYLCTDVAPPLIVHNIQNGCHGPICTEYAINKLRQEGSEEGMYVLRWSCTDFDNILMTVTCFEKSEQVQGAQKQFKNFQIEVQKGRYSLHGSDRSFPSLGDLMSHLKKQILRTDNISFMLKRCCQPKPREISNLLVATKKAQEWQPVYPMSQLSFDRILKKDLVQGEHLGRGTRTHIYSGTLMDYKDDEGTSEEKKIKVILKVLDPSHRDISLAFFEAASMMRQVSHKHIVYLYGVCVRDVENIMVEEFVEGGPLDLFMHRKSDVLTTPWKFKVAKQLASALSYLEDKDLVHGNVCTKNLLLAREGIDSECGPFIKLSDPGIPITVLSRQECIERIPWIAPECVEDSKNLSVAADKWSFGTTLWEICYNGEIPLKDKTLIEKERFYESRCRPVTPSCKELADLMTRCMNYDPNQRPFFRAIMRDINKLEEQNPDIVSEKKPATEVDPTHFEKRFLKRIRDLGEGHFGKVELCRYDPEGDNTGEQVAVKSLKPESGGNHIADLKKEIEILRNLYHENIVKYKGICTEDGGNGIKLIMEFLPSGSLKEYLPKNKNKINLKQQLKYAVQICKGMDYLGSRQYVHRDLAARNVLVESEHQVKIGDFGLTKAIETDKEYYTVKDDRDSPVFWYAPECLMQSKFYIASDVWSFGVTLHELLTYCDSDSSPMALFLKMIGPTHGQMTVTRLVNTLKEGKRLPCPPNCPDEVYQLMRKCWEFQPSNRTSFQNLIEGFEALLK
The test system of data set [6] is MG63.3 OS cells. The experiment in a line: in vitro SISGel assay with highly metastatic MG63.3 OS cells. It is filed as cell-based, human. The conditions noted are these: for activity on 3D SISGel compared with 2D: MG63.3, SISGel vs 2D MTT 72 h; for lowest dose leading to appreciable inhibition of 3D growth: MG63.3 on SISGel, vs vehicle control, replicates=4. From the text: SISGel is comprised of porcine small intestine submucosa gel that was originally developed at Oklahoma State U., by R. Hurst (CSO) and M. Ihnat (Consultant) (Bailey-Downs et al. 2014; Hurst et al. 2013, 2015, 2016). Unlike BME which is derived from a tumor-based matrix, SISGel is derived from healthy stroma and provides a suppressive “normal” ECM. […] Conditions have been identified that promoted suppressed ME-type profile (FIG. 2A). […] In addition to SISGel's complementarity to the BME assay, it can also be conducted in a 96-well format, enabling a high-throughput system to model suppressed/dormant cancer cells to further validate the screening results in BME.

Data set [7] concerns MG63.3 human OS cells. Briefly: PuMA (ex vivo Pulmonary Metastasis Assay) with MG63.3. Type of data set: cell-based. The conditions noted are these: single agents, two doses: 100 nM and 1 μM (rapamycin 100 nM and 1 pM [sic]; AZD8055 10 and 100 nM), replicates=3-5. How it is done: FIG. 23A is a schematic illustrating the metastatic progression of GFP-expressing OS cells conducted by injecting single cells via tail vein injection, followed by lung excision and insufflation 15 mins post-injection. The formation of multicellular colonies in the mouse lung microenvironment can be assessed 14-21 days post-injection.
Dissected lungs are then sectioned and grown on sponges.

Where only a bound is given, the exact number is not on record here.

`CNS(=O)(=O)C[C@H]1CC[C@H](N(C)c2ncnc3[nH]ccc23)CC1` [oclacitinib]: the “effect on metastatic phenotype / 3D growth in 3D BME (words)” value in data set [1] is given as “did not inhibit MG63.3 cells at any dose”; in data set [1] (listed as Oclacitinib), “no significant effect”; in data set [3], “statistically significant but very minimal inhibition”; in data set [3] (listed as Oclacitinib), “statistically significant but very small level of inhibition”. For the same molecule, the “effect on cell number in 2D monolayer” value in data set [2] (MG63.3, MTT, exposures up to 1 μM / assessed exposures) is “minimal inhibition of OS cell number”; in data set [4] (K7M2, MTT, exposures up to 1 μM) it was “minimal inhibition of OS cell number”. The “non-cytotoxic drug exposures in 2D” value in data set [4] (K7M2, MTT 72 h, 10 pM-100 μM) was “below 1 μM”. Also, the “inhibitory action against JAK1 relative to JAK2” value in data set [5] is on record as 1.8 times. Also, the “inhibitory action against JAK1 relative to JAK3” value in data set [5] is given as 9.9 times.
Take `CO[C@H]1C[C@@H]2CC[C@@H](C)[C@@](O)(O2)C(=O)C(=O)N2CCCC[C@H]2C(=O)O[C@H]([C@H](C)C[C@@H]2CC[C@@H](OP(C)(C)=O)[C@H](OC)C2)CC(=O)[C@H](C)/C=C(\C)[C@@H](O)[C@@H](OC)C(=O)[C@H](C)C[C@H](C)/C=C/C=C/C=C/1C` [ridaforolimus]: in data set [1], the minimal effective concentration turned out to be 0.001 µM and the “activity on 3D BME compared with 2D” value is on record as “much stronger activity on 3D BME at significantly lower doses”. The “doses exhibiting cytotoxicity on 2D growth” value in data set [2] (human, 72 h) was over 33 µM. Further, in data set [6], the “activity on 3D SISGel compared with 2D” value is listed as “much stronger activity on 3D SISGel at significantly lower doses” and the “lowest dose leading to appreciable inhibition of 3D growth” value came out at 100 pM. Further, in data set [7], the “inhibition of ME (loss of GFP signal in the lung tissue)” value is given as “strong inhibition of ME”.
Take `CO[C@H]1C[C@@H]2CC[C@@H](C)[C@@](O)(O2)C(=O)C(=O)N2CCCC[C@H]2C(=O)O[C@H]([C@H](C)C[C@@H]2CC[C@@H](OC(=O)C(C)(CO)CO)[C@H](OC)C2)CC(=O)[C@H](C)/C=C(\C)[C@@H](O)[C@@H](OC)C(=O)[C@H](C)C[C@H](C)/C=C/C=C/C=C/1C` [temsirolimus]: in data set [1], the minimal effective concentration came out at 0.001 µM and the “activity on 3D BME compared with 2D” value is listed as “much stronger activity on 3D BME at significantly lower doses”. Moreover, in data set [6], the “activity on 3D SISGel compared with 2D” value is recorded as “much stronger activity on 3D SISGel at significantly lower doses” and the “lowest dose leading to appreciable inhibition of 3D growth” value amounted to 1 pM. In addition, the “inhibition of ME (loss of GFP signal in the lung tissue)” value in data set [7] was “strong inhibition of ME”.
